Measurements: US20230165865A1, “HETEROARYLDIHYDROPYRIMIDINE DERIVATIVES AND METHODS OF TREATING HEPATITIS B INFECTIONS” (Janssen Pharmaceutica NV, priority 2018, published 2023)

What was measured:
[1] = system: human hepatocytes; test: Metabolic stability of test compound in human hepatocyte cell; format: in vitro ADME; conditions: comparing with reference 1 and reference 2
Outline: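 Compounds at 1.0 μM were incubated at 37 °C with cryopreserved human hepatocytes (1×10^6 viable cells/mL) and sampled from 0 to 120 min into cold acetonitrile, then analysed by LC-MS/MS. Half-life came from regression of parent disappearance over time. It was converted to CLint (μL/min/10^6 cells) and to scaled liver CLint (mL/min/kg).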

[2] = system: cryopreserved human hepatocytes; test: Cell viability assessment in CYP induction study (CellTiter-Fluor); format: cell-based; conditions: donor 1, 10 μM, 72 hours
Description: Preparation and Plating of Human Hepatocytes • 1. The cryopreserved human hepatocytes were thawed in 37° C. water bath and diluted by plating medium to a seeding density of 0.55×10^6 cells/mL. • 2. Transfer 100 μL to each well of collagen I coated 96-well plate. Place plate(s) in incubator and incubate at 37° C. for 4-6 hours. • 3. After incubation, observe cell morphology, agitate plate(s) to loosen debris, and replace medium. Place plate in incubator and incubate for 18 hours.
Incubation with Test Compound(s) • 1. Prepare dilute test compound and positive control inducers with 37° C. prepared incubation medium to respective working concentrations (Table 11). Final concentration of DMSO in the treatment group will be 0.1%. Prepare 25 mM chlorpromazine in DMSO and dilute 1000-fold with incubation medium as a cytotoxicity control.
• 2. Remove the Hepatocyte plate from the incubator. Observe cell morphology. Replace the medium in the appropriate wells with 125 μL of the toxicity controls, DMSO controls, inducers, or test article solutions, each in triplicate. • 3. After 24 hours and 48 hours, remove the Hepatocyte plate from the incubator and observe cell morphology. Renew the medium with test articles that freshly diluted from DMSO stocks. […]
After 72 hours of treatment, warm the incubation medium to 37° C. […] Cell viability was assessed by CellTiter-Fluor™ Cell Viability Assay kit. […]

[3] = system: HBV; test: Anti-viral assay in HepG2.2.15 cells: anti-HBV activity, HBV DNA in culture medium by qPCR; format: cell-based; conditions: HepG2.2.15 cells, 6 days treatment, HBV DNA by qPCR; read-out: EC50
Outline: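 Cells in 2% FBS medium treated 6 days, compound and medium refreshed at day 3; 8-point 1:3 dilutions in triplicate, top 10 or 1 uM (antiviral) and 100 uM (cytotoxicity). Extracellular viral DNA quantified by qPCR, giving EC50 and CC50.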

[4] = Cytotoxicity determination in HepG2.2.15 cells (CCK-8 assay); format: cell-based; conditions: human, 6 days treatment, CCK-8, highest concentration 100 uM
Outline: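 HepG2.2.15 cells (5,000/well, 2% FBS medium) were treated for 6 days, with medium and compound refreshed at day 3. Dosing was an 8-point 1:3 series from 100 uM, in triplicate. Viability was measured by CCK-8 after 2.5 h at 37 °C (A450, 630 nm reference), and CC50 was calculated.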

[5] = Pharmacokinetic study after intravenous and oral administration in male SD rats; format: in vivo; conditions: for clearance / Cmax: male, SD; for clearance / IV AUCinf/Dose: IV, nominal 2 mg/kg; for clearance: read-out: IV Cl; for Cmax / PO AUCinf/Dose: PO; for Cmax: nominal 5 mg/kg; for F: PO vs IV
Description: Male SD rats with a weight range of 250-300 g (Si Bei Fu Laboratory Animal Technology Co. Ltd, China) were used. Animals were fasted overnight and free access to food 4 hours after dosing.
Test compound (correction factor: 1.00) was dissolved in a 20% hydroxypropyl-β-cyclodextrin (HP-β-CD) at a final concentration of 1 mg/ml for the intravenous (IV) formulation and at final concentrations of 0.5 mg/ml for the oral (PO) formulation.
The intravenous formulation was dosed at 2 ml/kg to obtain a dose of 2 mg/kg. The oral formulations were dosed at 10 ml/kg to obtain final doses of 5 mg/kg.
Blood samples were taken at 5, 15 and 30 min, 1, 2, 4, 8 and 24 h after intravenous dose administration. Blood samples were taken at 15 and 30 min, 1, 2, 4, 8, 12 and 24 h after oral dose administration.
Approximately 0.20 mL blood will be collected into BD blood collection tubes containing Sodium Fluoride (NaF), Potassium Oxalate (KoX) and K3-EDTA at each time point. Samples were placed immediately on melting ice and plasma was obtained following centrifugation at 4° C. for 5 minutes at approximately 4000×g. Plasma samples were adjusted to pH 3-4 by phosphoric acid and stored at −75±15° C. prior to analysis. The whole process was completed within 1 hour.
Plasma samples were analyzed using LC-MS/MS methods. The lower limit of quantification (LLOQ) for plasma was 1.0 ng/ml.
A non-compartmental analysis using the “Linear up log down” rule was used for all data. A limited pharmacokinetic analysis was performed using Phoenix™ Professional (Version 6.1). Results: See table 10 below for plasma PK results.

[6] = rat plasma, comparing with reference 2

Row | SMILES | metabolic stability in human hepatocyte cells, in words [1] | Cell viability [2] [%] | EC50 [3] [µM] | CC50 at 6 days [4] [µM] | clearance ([5]; rat plasma) [mL/min/kg] | Cmax ([5]; rat plasma) [ng/mL] | IV AUCinf/Dose ([5]; rat plasma) [ng·kg·h/mg/mL] | PO AUCinf/Dose ([5]; rat plasma) [ng·kg·h/mg/mL] | clearance, in words [5, 6] | dose-normalized AUC (AUCinf/Dose), in words [5, 6] | F ([5]; rat) [%] | bioavailability (F (%)), in words ([5]; rat, comparing with reference 2)
1 | CCOC(=O)C1=C(CN2CCN3C(=S)N(CC(C)(C)C(=O)O)CC3C2)NC(c2nccs2)=N[C@H]1c1cccc(F)c1C (single isomer, unassigned) [Compound 1A] | improved metabolic stability | 95 | 0.0063 | 22.5 | 11.6 | 4060 | 1578.1 | 1780.7 | far slower clearance | over two-folds higher | 113 | increased (or equal) bioavailability
2 | CCOC(=O)C1=C(CN2CCN3C(=O)N(CC(C)(C)C(=O)O)C[C@@H]3C2)NC(c2nccs2)=N[C@H]1c1cccc(F)c1C [Reference 2, reference compound] | – | 117 | – | – | 65.6 | 332 | 254.9 | 129.7 | – | – | 50.8 | –
